Test results published in patent publication US9890369B2 (priority 2013, dated 2018).
Where “and” joins values, the source holds several entries; their conditions need not be identical. Equal entries are not always repeated.

Legend:
[1] = system: CHO K1 cells (WTP4); assay type: cell-based, Chinese hamster
[2] = system: HeLa cells; assay type: cell-based, human
[3] = system: CHO K1 cells; assay type: cell-based, Chinese hamster

CN[C@@H]1C[C@H]2O[C@@](C)([C@@H]1OC)n1c3ccccc3c3c4c(c5c6ccccc6n2c5c31)C(=O)NC4 [Staurosporine, staurosporine]
% G0/G1 [1]: 42.9% and 41.8%
% G2/M [1]: 13.6% and 12.2%
apoptosis induction by PARP cleavage [2]: apoptosis induction
apoptosis induction by TUNEL staining (in words) [3]: complete conversion of cells
